These results are taken from publication PMC12022980, “Rational Design of PROTAC Linkers Featuring Ferrocene as a Molecular Hinge to Enable Dynamic Conformational Changes” (Journal of the American Chemical Society, 2025).

≈ marks a conversion by molar mass, not a printed value. Read-outs that look alike come from different tables or passages of the source.

Data set [1] has as its target VCB protein complex (VHL:ElonginC:ElonginB) (Homo sapiens, UniProt P40337). Kind of data set: Native gel electrophoresis assay for ternary complex formation. It counts as binding. As to conditions: VCB incubated with PROTAC 30 min, room temperature. An excerpt:
To monitor ternary complex formation mediated by FerroTACs, we leveraged native gel electrophoresis assay, a methodology recently validated to assess VHL dimerization by homo-PROTACs.[41] This in vitro approach serves as a rapid semiqualitative tool to evaluate homo-FerroTAC activity in promoting stable ternary protein complexes. The technique is user-friendly, suitable for higher throughput, and requires lower protein quantities compared to other biophysical methods. The recombinant VCB protein complex (VHL:ElonginC:ElonginB) was incubated with the corresponding Homo-PROTACs (CM11, AS1, cisAS1, AS2) for 30 min at room temperature, followed by non-denaturing gel electrophoresis. Ternary complex formation was indicated by an upward shift in the protein band on the gel, in agreement with the higher molecular weight of the complex. […]
antibody (LI-COR #926-32213, 1:5,000) or IRDye 800CW donkey anti-mouse secondary antibody, (Li-COR […]
room temperature and protected from light. Thereafter, the membranes were washed with TBS-T three times for 10 min, and protein bands were acquired using a ChemiDoc MP imaging system (Bio-Rad). Band quantification was performed using Image Lab software and reported as ratio of each protein band relative to the lane’s loading control. The values obtained were then normalised to vehicle control.
Native Gel Electrophoresis Assay
Gel casting. […]

A short description of data set [2]: Kinetic solubility in phosphate buffer and FeSSIF. Type of data set: physicochemical. As to conditions: kinetic from iPrOH stock. The procedure:
Solubility in Phosphate Buffer and Fed State Simulated Intestinal Fluid (FeSSIF) 8 µL of reference or test compound stock solution (10 mM in iPrOH) was added to 792 μL of 100 mM phosphate buffer (pH 7.4) or FeSSIF (pH 5.8). The resulting mixture was shaken for 1 h (1000 rpm) at room temperature and then centrifuged for 10 min (12 000 rpm) to remove the undissolved particles. The supernatant was collected and diluted 10 times and 100 times separately with 100 mM phosphate buffer or FeSSIF. Five microliters of the supernatant samples (no diluted, 10 times diluted, 100 times diluted) were mixed with 95 μL of acetonitrile (containing internal standard) separately before injecting into LC-MS/MS for analysis. […]

A further data set is described as follows: Plasma stability assay. Type of data set: in vitro ADME. The note with it: mouse plasma; read-out: stability T1/2 in mouse plasma. How it is done: Frozen plasma was thawed at 37 °C and centrifuged at 3000 rpm for 8 min to remove clots, and the supernatant was used in the experiment. The pH of the plasma was recorded, and only the pH range between 7.4 and 8 was used. The plasma and compound solution were prewarmed to 37 °C. 10 µL of prewarmed testing compound or reference compound (procaine) solution (20 μM in 0.05 mM sodium phosphate buffer (pH 7.4) with 0.5% BSA) was mixed with 90 μL of plasma at different time points to allow for 5, 15, 30, 45, and 60 min of incubation time. For 0 min, the plasma was mixed with vehicle only. Acetonitrile was added to the compound and plasma mixture to quench the reaction, and the resulting mixture was centrifuged (5594g for 15 min). The

For the next data set, the target named is T1, pVHL30 (Homo sapiens, UniProt P40337).
T1 construct: endogenous in cells; host or cells: HEK293 (ATCC)
Set-up: method as in PMID 29018234. As to conditions: cited from earlier work.

[3] abbreviates: FeSSIF pH 5.8, read-out: kinetic solubility FeSSIF (pH 5.8).
[4] abbreviates: phosphate buffer, aqueous buffer, PBS pH 7.4, read-out: kinetic solubility PBS (pH 7.4).

T1 sequence (P40337 whole entry): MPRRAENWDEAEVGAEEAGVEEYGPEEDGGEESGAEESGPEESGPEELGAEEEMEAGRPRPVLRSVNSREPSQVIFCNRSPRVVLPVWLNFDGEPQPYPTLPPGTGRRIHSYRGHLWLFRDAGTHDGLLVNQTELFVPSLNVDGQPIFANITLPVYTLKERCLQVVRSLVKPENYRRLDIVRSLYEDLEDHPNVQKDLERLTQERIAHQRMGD
Sequence of VCB protein complex (VHL:ElonginC:ElonginB) (P40337 54-213 limits assumed, species assumed): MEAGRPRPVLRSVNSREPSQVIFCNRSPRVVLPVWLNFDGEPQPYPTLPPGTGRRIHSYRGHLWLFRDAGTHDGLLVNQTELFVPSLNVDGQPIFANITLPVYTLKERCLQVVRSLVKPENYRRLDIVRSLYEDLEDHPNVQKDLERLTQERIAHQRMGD
Sequence of VCB protein complex (VHL:ElonginC:ElonginB) (Q15369 17-112 partner limits assumed, species assumed): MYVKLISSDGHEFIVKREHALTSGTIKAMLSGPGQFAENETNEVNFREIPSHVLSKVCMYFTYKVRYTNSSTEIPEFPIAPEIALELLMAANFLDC
Sequence of VCB protein complex (VHL:ElonginC:ElonginB) (Q15370 1-104 partner limits assumed, species assumed): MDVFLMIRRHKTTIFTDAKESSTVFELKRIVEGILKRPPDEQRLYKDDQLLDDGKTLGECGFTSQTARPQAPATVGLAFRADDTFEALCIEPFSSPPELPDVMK

Take `Cc1ncsc1-c1ccc(CNC(=O)[C@@H]2C[C@@H](O)CN2C(=O)[C@@H](NC(=O)COCCOCCOCCOCCOCCOCC(=O)N[C@H](C(=O)N2C[C@H](O)C[C@H]2C(=O)NCc2ccc(-c3scnc3C)cc2)C(C)(C)C)C(C)(C)C)cc1` [CM11]: the “ternary complex formation, native gel (in words)” value in data set [1] is “induced formation of an up-shifted protein band”. Further, the solubility (kinetic) (commonly solubility judged after dilution from a stock solution rather than from solid) at 1 h in data set [2] (setting [3]) came to 38.6 µM (≈ 45.5 µg/mL); in data set [2] (setting [4]), 58.2 µM (≈ 68.6 µg/mL). For the same compound, the half-life at 2 µM in the data set “Plasma stability assay” came out at 3.9 h. The “t1/2 (pVHL30 degradation half-life)” value at pVHL30 (1 μM, calculated from ref 38) is reported as 85.1 min. Further, the DC50 at pVHL30 (reference value, CM11 only run at 1 μM here, read-out: DC50 ± S.D (pVHL30)) is under 0.1 µM.

Take `Cc1ncsc1-c1ccc(CNC(=O)[C@@H]2C[C@@H](O)CN2C(=O)[C@@H](NC(=O)CCCCCOCCOCCCCCC(=O)Nc2cccc3c2C(=O)N(C2CCC(=O)NC2=O)C3=O)C(C)(C)C)cc1` (stereo partly drawn) [14a]: the solubility (kinetic) at 1 h in data set [2] (setting [3]) was 59.5 µM (≈ 57 µg/mL); in data set [2] (setting [4]), 8.7 µM (≈ 8.34 µg/mL). For the same compound, the half-life at 2 µM in “Plasma stability assay” turned out to be 0.557 h.
